In patent US20110124888A1, “STYRYLBENZOFURAN DERIVATIVES AS INHIBITORS FOR BETA-AMYLOID FIBRIL FORMATION AND PREPARATION METHOD THEREOF” (Korea Institute of Science and Technology, priority 2008, published 2011):

Key:
[1] = Pharmacokinetics test in rats (plasma); assay type: in vivo, SD rats; conditions: for BA: 2.5 mg/kg po vs 1.25 mg/kg iv; for AUC / Cmax / Tmax: SD, rat, plasma; for AUC: n = 3
Description: (§1) 1) Test Animal and Administration of Test Compound
(§2) Three 7 week-old ICR mice (weight: about 30 g) and three 8 week-old SD rats (weight: about 250 g) were used per test group. A solution prepared by dissolving the compounds of Examples 9 and 17 in excipient (DMSO/Tween 20/saline: 0.1/0.6/2.3, v/v/v) were administered to each experimental animal. The test compound was orally administered in an amount of 10 mL per kg of body weight or intravenously administered in an amount of 5 mL per kg of body weight through the fine vein.
(§3) 2) Blood Concentration Test
(§4) At 30 min, 1 hr, 2 hr, 4 hr, 10 hr and 24 hr after oral administration of the test compounds, the blood was collected from periorbital veins into the tube containing heparin (1000 IU/mL, 3 μl) for the mice, and from jugular vein for rats. The blood sample was centrifuged at 12,000 rpm for 2 min to obtain plasma. The obtained plasma was kept in freezer at −80° C. until the analysis.
(§5) The sample was analyzed using LC/MSMS system under the following condition:
(§6) The sample was pretreated as follows:
(§7) 50 μL of plasma was placed in 2.0 mL of tube having a cap (Eppendorf Co.) and acidified by adding 20 μL of 0.1% formic acid thereto. An internal standard solution and 1 mL of ethyl acetate as an extract solvent were added to the resultant solution. The resultant solution was mixed using thermomixer (Eppendorf Co.) at 1400 rpm for 5 min, and then subjected to centrifuge (Eppendorf Co.). The supernatant was collected and concentrated at 35° C. using cyclone. The residue was re-dissolved in 50 μL of moblie phase and 5 μL of the resulting solution was injected into LC/MS and analyzed.
(§8) In Tables 8 and 9, “iv” refers to a intravenous injection; “po” refers to a per oral; “AUC plasma” refers to an area under the plasma level-time curve; “Cmax” refers to a maximum plasma concentration; “Tmax” refers to a time to reach Cmax, “BA” refers to a bioavailability (%) according to Equation 2 below; “AUC Brain” refers to a area under the brain tissue level-time curve; and “AUCBrain/AUCPlasma” refers to a passage rate of the test compound to the brain.
(§9) Bioavailability (%)=[(AUCpo/AUCiv)×(Doseiv/Dosepo)×100] Equation 2
(§10) wherein, AUCpo means an area under the blood concentration time curve (AUC) after the per oral administration, AUCiv means an AUC after the intravenous injection, Doseiv means an amount of the intravenous injection, and Dosepo means an amount of the per oral administration.

[2] = Pharmacokinetics test in mice (plasma); assay type: in vivo, ICR mice; conditions: for AUC / Cmax / Tmax: ICR, mouse, plasma; for AUC / Cmax / Tmax / BA: mice; for AUC: n = 3; for AUC (in words) / bioavailability (in words): mice and rats, Tables 8 and 9; for BA: 2.5 mg/kg po vs 1.25 mg/kg iv
Description: as §1, §2, §3, §4, §5, §6, §7, §8, §9, §10

beta-amyloid 42 (Aβ42) = molecular target: T1, beta-amyloid 42 (Aβ42) (Homo sapiens, UniProt P05067); assay: Inhibitory effect on the formation of beta-amyloid fibrils in vitro (ThT fluorescence assay); assay type: biochemical; conditions: for inhibition at 10 µM: 10 μM compound, Aβ42 25 μM, read-out: % Inhibition (10 μM); for IC50: In vitro ThT analysis (Aβ42: 25 μM); for % inhibition against the beta-amyloid 42 formation compared with curcumin: Tables 1 to 6, relative to curcumin
T1 construct: Beta-amyloid 42 (Aβ42) was dissolved in dimethylsulfoxide (DMSO)
T1 sequence (P05067 672-713 limits assumed): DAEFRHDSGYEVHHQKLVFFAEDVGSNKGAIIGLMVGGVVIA

Structure (SMILES) | BA [1] [%] | AUC ([1]; 1.25 mg/kg, iv) [ng·h/mL] | Cmax ([1]; 2.5 mg/kg, po) [ng/mL] | Tmax ([1]; 2.5 mg/kg, po) [h] | AUC ([1]; 2.5 mg/kg, po) [ng·h/mL] | AUC ([2]; 1.25 mg/kg, iv) [ng·h/mL] | Cmax ([2]; 2.5 mg/kg, po) [ng/mL] | Tmax ([2]; 2.5 mg/kg, po) [h] | AUC ([2]; 2.5 mg/kg, po) [ng·h/mL] | AUC (in words) [2] | bioavailability (in words) [2] | BA [2] [%] | inhibition at 10 µM (beta-amyloid 42 (Aβ42); experiment of Table 7) [%] | IC50 (beta-amyloid 42 (Aβ42); experiment of Table 1) [nM] | IC50 (beta-amyloid 42 (Aβ42); experiment of Table 7) [nM] | % inhibition against the beta-amyloid 42 formation compared with curcumin (beta-amyloid 42 (Aβ42))
CNc1ccc(C=Cc2cc3cc(OC)ccc3o2)cc1 [Compound 17, 5-methoxy-2-(4-methylaminostyryl)benzofuran] | 22.4 | 1140 | 122 | 1.33 | 516 | 237 | 96.5 | 0.83 | 326 | high degree of AUC | superior bioavailability | 68.8 | 74.6 | 78 | 725 | superior % inhibition
COc1ccc2cc(C=Cc3ccc(N(C)C)cc3)oc2c1 [Compound 9, 6-methoxy-2-(4-dimethylaminostyryl)benzofuran] | 27.8 | 1640 | 215 | 1.67 | 908 | 503 | 172 | 0.83 | 646 | high degree of AUC | superior bioavailability | 64.2 | 78.7 | 70 | 972 | superior % inhibition
